Test results published in PubChem BioAssay AID2060883 (Molecular Pharmacology Branch, DTP, NCI, 2025).

System: 843782-103-R-J1-PDC complex spheroid viability
Assay: Anticancer human tumor 843782-103-R-J1-PDC patient-derived lung adenocarcinoma cell line growth inhibition [RAS]
Details: for IC50: curve of first compound; for viability, T/C: stronger effect = lower value
Outline: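 Agents were tested in combination matrices in half-log decrements from a top concentration at or near clinical Cmax (10 microM if undetermined). Targets were multi-cell spheroids of tumour lines plus HUVEC and MSC stromal cells.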
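Note: viability read after seven days of compound exposure.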

C[C@@H](NC(=O)c1ncnc(N)c1Cl)c1ncc(C(=O)Nc2cc(C(F)(F)F)c(Cl)cn2)s1 + CCn1c(-c2cc(N3CCN(C)CC3)cnc2C(C)OC)c2c3cc(ccc31)-c1csc(n1)CC(NC(=O)C1CC1C)C(=O)N1CCCC(N1)C(=O)OCC(C)(C)C2
IC50 (second compound 0.000949 µM): > 10000 nM | IC50 (second compound 0.003 µM): > 10000 nM | IC50 (second compound 0.00949 µM): < 31.6 nM | IC50 (second compound 0.03 µM): < 31.6 nM | IC50 (second compound 0.0949 µM): < 31.6 nM | IC50 (second compound 0.3 µM): < 31.6 nM | viability, T/C (second compound 0.000949 µM, first compound 0.0316 µM): 84.4% | viability, T/C (second compound 0.000949 µM, first compound 0.1 µM): 78.1% | viability, T/C (second compound 0.000949 µM, first compound 0.316 µM): 85.8% | viability, T/C (second compound 0.000949 µM, first compound 1 µM): 79.6% | viability, T/C (second compound 0.000949 µM, first compound 3.16 µM): 89.8% | viability, T/C (second compound 0.000949 µM, first compound 10 µM): 84.3% | viability, T/C (second compound 0.003 µM, first compound 0.0316 µM): 68.9% | viability, T/C (second compound 0.003 µM, first compound 0.1 µM): 70% | viability, T/C (second compound 0.003 µM, first compound 0.316 µM): 67.5% | viability, T/C (second compound 0.003 µM, first compound 1 µM): 68.6% | viability, T/C (second compound 0.003 µM, first compound 3.16 µM): 74.6% | viability, T/C (second compound 0.003 µM, first compound 10 µM): 64.7% | viability, T/C (second compound 0.00949 µM, first compound 0.0316 µM): 41% | viability, T/C (second compound 0.00949 µM, first compound 0.1 µM): 51.6% | viability, T/C (second compound 0.00949 µM, first compound 0.316 µM): 48.4% | viability, T/C (second compound 0.00949 µM, first compound 1 µM): 44% | viability, T/C (second compound 0.00949 µM, first compound 3.16 µM): 53.6% | viability, T/C (second compound 0.00949 µM, first compound 10 µM): 48.2% | viability, T/C (second compound 0.03 µM, first compound 0.0316 µM): 22.9% | viability, T/C (second compound 0.03 µM, first compound 0.1 µM): 26.2% | viability, T/C (second compound 0.03 µM, first compound 0.316 µM): 28.8% | viability, T/C (second compound 0.03 µM, first compound 1 µM): 32.5% | viability, T/C (second compound 0.03 µM, first compound 3.16 µM): 34.7% | viability, T/C (second compound 0.03 µM, first compound 10 µM): 33.4% | viability, T/C (second compound 0.0949 µM, first compound 0.0316 µM): 19.8% | viability, T/C (second compound 0.0949 µM, first compound 0.1 µM): 18.8% | viability, T/C (second compound 0.0949 µM, first compound 0.316 µM): 19.8% | viability, T/C (second compound 0.0949 µM, first compound 1 µM): 21.6% | viability, T/C (second compound 0.0949 µM, first compound 3.16 µM): 24.3% | viability, T/C (second compound 0.0949 µM, first compound 10 µM): 23.7% | viability, T/C (second compound 0.3 µM, first compound 0.0316 µM): 15.4% | viability, T/C (second compound 0.3 µM, first compound 0.1 µM): 15.6% | viability, T/C (second compound 0.3 µM, first compound 0.316 µM): 19.1% | viability, T/C (second compound 0.3 µM, first compound 1 µM): 17.5% | viability, T/C (second compound 0.3 µM, first compound 3.16 µM): 19.6% | viability, T/C (second compound 0.3 µM, first compound 10 µM): 18.6%

CCc1c2c(nc3ccc(O)cc13)-c1cc3c(c(=O)n1C2)COC(=O)[C@]3(O)CC + CCn1c(-c2cc(N3CCN(C)CC3)cnc2C(C)OC)c2c3cc(ccc31)-c1csc(n1)CC(NC(=O)C1CC1C)C(=O)N1CCCC(N1)C(=O)OCC(C)(C)C2
IC50 (second compound 0.000949 µM): 1.49 nM | IC50 (second compound 0.003 µM): 0.963 nM | IC50 (second compound 0.00949 µM): < 0.949 nM | IC50 (second compound 0.03 µM): < 0.949 nM | IC50 (second compound 0.0949 µM): < 0.949 nM | IC50 (second compound 0.3 µM): < 0.949 nM | viability, T/C (second compound 0.000949 µM, first compound 0.000949 µM): 68.4% | viability, T/C (second compound 0.000949 µM, first compound 0.003 µM): 21.8% | viability, T/C (second compound 0.000949 µM, first compound 0.00949 µM): 4.84% | viability, T/C (second compound 0.000949 µM, first compound 0.03 µM): 2.16% | viability, T/C (second compound 0.000949 µM, first compound 0.0949 µM): 1.13% | viability, T/C (second compound 0.000949 µM, first compound 0.3 µM): 0.96% | viability, T/C (second compound 0.003 µM, first compound 0.000949 µM): 50.8% | viability, T/C (second compound 0.003 µM, first compound 0.003 µM): 20.9% | viability, T/C (second compound 0.003 µM, first compound 0.00949 µM): 5.17% | viability, T/C (second compound 0.003 µM, first compound 0.03 µM): 1.82% | viability, T/C (second compound 0.003 µM, first compound 0.0949 µM): 1.45% | viability, T/C (second compound 0.003 µM, first compound 0.3 µM): 1.05% | viability, T/C (second compound 0.00949 µM, first compound 0.000949 µM): 38% | viability, T/C (second compound 0.00949 µM, first compound 0.003 µM): 17.9% | viability, T/C (second compound 0.00949 µM, first compound 0.00949 µM): 5.27% | viability, T/C (second compound 0.00949 µM, first compound 0.03 µM): 2.03% | viability, T/C (second compound 0.00949 µM, first compound 0.0949 µM): 2.15% | viability, T/C (second compound 0.00949 µM, first compound 0.3 µM): 0.92% | viability, T/C (second compound 0.03 µM, first compound 0.000949 µM): 18.9% | viability, T/C (second compound 0.03 µM, first compound 0.003 µM): 15.3% | viability, T/C (second compound 0.03 µM, first compound 0.00949 µM): 5.86% | viability, T/C (second compound 0.03 µM, first compound 0.03 µM): 2.53% | viability, T/C (second compound 0.03 µM, first compound 0.0949 µM): 1.38% | viability, T/C (second compound 0.03 µM, first compound 0.3 µM): 0.97% | viability, T/C (second compound 0.0949 µM, first compound 0.000949 µM): 14.2% | viability, T/C (second compound 0.0949 µM, first compound 0.003 µM): 13.4% | viability, T/C (second compound 0.0949 µM, first compound 0.00949 µM): 5.71% | viability, T/C (second compound 0.0949 µM, first compound 0.03 µM): 2.6% | viability, T/C (second compound 0.0949 µM, first compound 0.0949 µM): 1.4% | viability, T/C (second compound 0.0949 µM, first compound 0.3 µM): 1.46% | viability, T/C (second compound 0.3 µM, first compound 0.000949 µM): 13.5% | viability, T/C (second compound 0.3 µM, first compound 0.003 µM): 11.7% | viability, T/C (second compound 0.3 µM, first compound 0.00949 µM): 5.29% | viability, T/C (second compound 0.3 µM, first compound 0.03 µM): 2.41% | viability, T/C (second compound 0.3 µM, first compound 0.0949 µM): 1.96% | viability, T/C (second compound 0.3 µM, first compound 0.3 µM): 0.79%

C[C@@H](NC(=O)c1ncnc(N)c1Cl)c1ncc(C(=O)Nc2cc(C(F)(F)F)c(Cl)cn2)s1 + C=CC(=O)N1CCN(c2nc(OCC3CCCN3C)nc3c(F)c(-c4nc(N)cc(C)c4C(F)(F)F)c(Cl)cc23)C(C)C1
IC50 (second compound 0.00316 µM): > 10000 nM | IC50 (second compound 0.01 µM): > 10000 nM | IC50 (second compound 0.0316 µM): > 10000 nM | IC50 (second compound 0.1 µM): > 10000 nM | IC50 (second compound 0.316 µM): > 10000 nM | IC50 (second compound 1 µM): > 10000 nM | viability, T/C (second compound 0.00316 µM, first compound 0.0316 µM): 92.2% | viability, T/C (second compound 0.00316 µM, first compound 0.1 µM): 84.3% | viability, T/C (second compound 0.00316 µM, first compound 0.316 µM): 92.1% | viability, T/C (second compound 0.00316 µM, first compound 1 µM): 91.4% | viability, T/C (second compound 0.00316 µM, first compound 3.16 µM): 106% | viability, T/C (second compound 0.00316 µM, first compound 10 µM): 84.9% | viability, T/C (second compound 0.01 µM, first compound 0.0316 µM): 85.2% | viability, T/C (second compound 0.01 µM, first compound 0.1 µM): 84.2% | viability, T/C (second compound 0.01 µM, first compound 0.316 µM): 88.4% | viability, T/C (second compound 0.01 µM, first compound 1 µM): 88.5% | viability, T/C (second compound 0.01 µM, first compound 3.16 µM): 91.9% | viability, T/C (second compound 0.01 µM, first compound 10 µM): 91.8% | viability, T/C (second compound 0.0316 µM, first compound 0.0316 µM): 87.5% | viability, T/C (second compound 0.0316 µM, first compound 0.1 µM): 79.8% | viability, T/C (second compound 0.0316 µM, first compound 0.316 µM): 87% | viability, T/C (second compound 0.0316 µM, first compound 1 µM): 84.9% | viability, T/C (second compound 0.0316 µM, first compound 3.16 µM): 94.5% | viability, T/C (second compound 0.0316 µM, first compound 10 µM): 89.1% | viability, T/C (second compound 0.1 µM, first compound 0.0316 µM): 90.7% | viability, T/C (second compound 0.1 µM, first compound 0.1 µM): 83.7% | viability, T/C (second compound 0.1 µM, first compound 0.316 µM): 87.3% | viability, T/C (second compound 0.1 µM, first compound 1 µM): 90.8% | viability, T/C (second compound 0.1 µM, first compound 3.16 µM): 91.5% | viability, T/C (second compound 0.1 µM, first compound 10 µM): 88.7% | viability, T/C (second compound 0.316 µM, first compound 0.0316 µM): 88.5% | viability, T/C (second compound 0.316 µM, first compound 0.1 µM): 87.9% | viability, T/C (second compound 0.316 µM, first compound 0.316 µM): 90.4% | viability, T/C (second compound 0.316 µM, first compound 1 µM): 86.6% | viability, T/C (second compound 0.316 µM, first compound 3.16 µM): 95.7% | viability, T/C (second compound 0.316 µM, first compound 10 µM): 91.8% | viability, T/C (second compound 1 µM, first compound 0.0316 µM): 82.7% | viability, T/C (second compound 1 µM, first compound 0.1 µM): 92.2% | viability, T/C (second compound 1 µM, first compound 0.316 µM): 97% | viability, T/C (second compound 1 µM, first compound 1 µM): 85.3% | viability, T/C (second compound 1 µM, first compound 3.16 µM): 92.5% | viability, T/C (second compound 1 µM, first compound 10 µM): 87.3%
